Reference: US6355799B1, “Substituted benzene compounds, process for their preparation, and herbicidal and defoliant compositions containing them” (ISK Americas Incorporated, priority 1997, dated 2002)

Legend:
Type in all cases: in vivo
[1] = test system: redroot pigweed (Amaranthus retroflexus, AMARE); experiment: Pre-emerge test, greenhouse herbicide activity screening; conditions: rated 14 days after application, 0 = no damage, 100 = complete death
Method in brief: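 Rating: 0–100 visual injury, 14 DAA. Application: acetone, 187 l/ha, 15–1000 g ai/ha, flat-fan track sprayer with nozzle 40–45 cm above soil or canopy. Post-emerge runs used 0.25% v/v surfactant on 2–3 leaf plants.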

[2] = test system: field corn (Zea mays L., var. Dekalb 535, CORN); experiment: Post-emerge test, crop safety; conditions: post-emerge, 14 days after application, rating scale 0-100
Method in brief: (§1)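 Fourteen days after spraying, crop and weed injury was graded visually from 0, no effect, to 100, every plant dead. Test substances were dissolved in acetone and applied at 15–1000 g ai/ha with a flat-fan nozzle. Application was either pre-emergence, one day after sowing, or post-emergence at the 2–3 leaf stage.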

[3] = test system: upland rice (Oryza sp., var. Tebonnet, RICE); experiment: Post-emerge test, crop safety; conditions: post-emerge, 14 days after application, rating scale 0-100
Method in brief: as §1

[4] = test system: field corn (Zea mays L., var. Dekalb 535, CORN); experiment: Pre-emerge test, crop safety; conditions: rated 14 days after application, 0 = no damage, 100 = complete death
Method in brief: as §1

[5] = test system: upland rice (Oryza sp., var. Tebonnet, RICE); experiment: Pre-emerge test, crop safety; conditions: rated 14 days after application, 0 = no damage, 100 = complete death
Method in brief: as §1

[6] = test system: sicklepod (Cassia obtusifolia, CASOB); experiment: Post-emerge test, greenhouse herbicide activity screening; conditions: post-emerge, 14 days after application, rating scale 0-100
Method in brief: (§2)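 Herbicidal damage is scored 0 (none) to 100 (complete plant death) two weeks after a simulated field spray. Rates span 15–1000 g ai/ha, delivered in acetone at 187 l/ha. For post-emergence treatments, plants have 2–3 leaves and the spray carries 0.25% v/v non-ionic surfactant.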

[7] = test system: barnyardgrass (Echinochloa crus-galli, ECHCG); experiment: as above; conditions: post-emerge, 14 days after application, rating scale 0-100
Method in brief: as §2

[8] = test system: green foxtail (Setaria viridis, SETVI); experiment: as above; conditions: post-emerge, 14 days after application, rating scale 0-100
Method in brief: as §2

[9] = test system: large crabgrass (Digitaria sanguinalis, DIGSA); experiment: as above; conditions: post-emerge, 14 days after application, rating scale 0-100
Method in brief: as §2

[10] = test system: lambsquarters (Chenopodium album, CHEAL); experiment: as above; conditions: post-emerge, 14 days after application, rating scale 0-100
Method in brief: as §2

[11] = test system: johnsongrass (Sorghum halepense, SORHA); experiment: as above; conditions: post-emerge, 14 days after application, rating scale 0-100
Method in brief: as §2

[12] = test system: redroot pigweed (Amaranthus retroflexus, AMARE); experiment: as above; conditions: post-emerge, 14 days after application, rating scale 0-100
Method in brief: as §2

[13] = test system: velvetleaf (Abutilon theophrasti, ABUTH); experiment: as above; conditions: post-emerge, 14 days after application, rating scale 0-100
Method in brief: as §2

[14] = test system: ivyleaf morningglory (Ipomoea hederacea, IPOHE); experiment: as above; conditions: post-emerge, 14 days after application, rating scale 0-100
Method in brief: as §2

[15] = test system: sicklepod (Cassia obtusifolia, CASOB); experiment: Pre-emerge test, greenhouse herbicide activity screening; conditions: rated 14 days after application, 0 = no damage, 100 = complete death
Method in brief: as §1

[16] = test system: barnyardgrass (Echinochloa crus-galli, ECHCG); experiment: as above; conditions: rated 14 days after application, 0 = no damage, 100 = complete death
Method in brief: as §1

[17] = test system: green foxtail (Setaria viridis, SETVI); experiment: as above; conditions: rated 14 days after application, 0 = no damage, 100 = complete death
Method in brief: as §1

[18] = test system: large crabgrass (Digitaria sanguinalis, DIGSA); experiment: as above; conditions: rated 14 days after application, 0 = no damage, 100 = complete death
Method in brief: as §1

[19] = test system: lambsquarters (Chenopodium album, CHEAL); experiment: as above; conditions: rated 14 days after application, 0 = no damage, 100 = complete death
Method in brief: as §1

[20] = test system: johnsongrass (Sorghum halepense, SORHA); experiment: as above; conditions: rated 14 days after application, 0 = no damage, 100 = complete death
Method in brief: as §1

[21] = test system: velvetleaf (Abutilon theophrasti, ABUTH); experiment: as above; conditions: rated 14 days after application, 0 = no damage, 100 = complete death
Method in brief: as §1

[22] = test system: ivyleaf morningglory (Ipomoea hederacea, IPOHE); experiment: as above; conditions: rated 14 days after application, 0 = no damage, 100 = complete death
Method in brief: as §1

COc1c(Cl)cc(F)c(-n2c(=S)cc(C(F)(F)F)n(C)c2=O)c1NC(=S)c1ccc(F)cc1F [2-46]
60: Pre-emerge Herbicidal Activity, phytotoxicity rating (0-100), IPOHE ([22]; 250 g ai/ha)
50: phytotoxicity rating ABUTH ([13]; 63 g ai/ha) | Pre-emerge Herbicidal Activity, phytotoxicity rating (0-100), ECHCG ([16]; 250 g ai/ha) | Pre-emerge Herbicidal Activity, phytotoxicity rating (0-100), ABUTH ([21]; 63 g ai/ha)
0: phytotoxicity rating CORN ([2]; 63 g ai/ha) | Pre-emerge phytotoxicity rating (0-100), crop damage, CORN ([4]; 63 g ai/ha) | phytotoxicity rating CASOB ([6]; 63 g ai/ha) | phytotoxicity rating CASOB ([6]; 250 g ai/ha) | phytotoxicity rating ECHCG ([7]; 63 g ai/ha) | phytotoxicity rating SETVI ([8]; 63 g ai/ha) | phytotoxicity rating DIGSA ([9]; 63 g ai/ha) | phytotoxicity rating DIGSA ([9]; 250 g ai/ha) | phytotoxicity rating SORHA ([11]; 63 g ai/ha) | phytotoxicity rating SORHA ([11]; 250 g ai/ha) | phytotoxicity rating IPOHE ([14]; 63 g ai/ha) | Pre-emerge Herbicidal Activity, phytotoxicity rating (0-100), ECHCG ([16]; 63 g ai/ha) | Pre-emerge Herbicidal Activity, phytotoxicity rating (0-100), IPOHE ([22]; 63 g ai/ha)
20: phytotoxicity rating CORN ([2]; 250 g ai/ha) | Pre-emerge phytotoxicity rating (0-100), crop damage, RICE ([5]; 63 g ai/ha) | phytotoxicity rating IPOHE ([14]; 250 g ai/ha)
10: phytotoxicity rating RICE ([3]; 63 g ai/ha) | phytotoxicity rating ECHCG ([7]; 250 g ai/ha) | phytotoxicity rating CHEAL ([10]; 63 g ai/ha)
70: Pre-emerge phytotoxicity rating (0-100), crop damage, RICE ([5]; 250 g ai/ha) | phytotoxicity rating AMARE ([12]; 250 g ai/ha) | Pre-emerge Herbicidal Activity, phytotoxicity rating (0-100), DIGSA ([18]; 250 g ai/ha)
90: Pre-emerge phytotoxicity rating (0-100), crop damage, CORN ([4]; 250 g ai/ha) | Pre-emerge Herbicidal Activity, phytotoxicity rating (0-100), SETVI ([17]; 63 g ai/ha) | Pre-emerge Herbicidal Activity, phytotoxicity rating (0-100), SORHA ([20]; 250 g ai/ha)
100: Pre-emerge Herbicidal Activity, phytotoxicity rating (0-100), AMARE ([1]; 63 g ai/ha) | Pre-emerge Herbicidal Activity, phytotoxicity rating (0-100), AMARE ([1]; 250 g ai/ha) | phytotoxicity rating ABUTH ([13]; 250 g ai/ha) | Pre-emerge Herbicidal Activity, phytotoxicity rating (0-100), CASOB ([15]; 250 g ai/ha) | Pre-emerge Herbicidal Activity, phytotoxicity rating (0-100), SETVI ([17]; 250 g ai/ha) | Pre-emerge Herbicidal Activity, phytotoxicity rating (0-100), CHEAL ([19]; 63 g ai/ha) | Pre-emerge Herbicidal Activity, phytotoxicity rating (0-100), CHEAL ([19]; 250 g ai/ha) | Pre-emerge Herbicidal Activity, phytotoxicity rating (0-100), ABUTH ([21]; 250 g ai/ha)
30: phytotoxicity rating RICE ([3]; 250 g ai/ha) | phytotoxicity rating SETVI ([8]; 250 g ai/ha) | phytotoxicity rating AMARE ([12]; 63 g ai/ha) | Pre-emerge Herbicidal Activity, phytotoxicity rating (0-100), CASOB ([15]; 63 g ai/ha) | Pre-emerge Herbicidal Activity, phytotoxicity rating (0-100), DIGSA ([18]; 63 g ai/ha) | Pre-emerge Herbicidal Activity, phytotoxicity rating (0-100), SORHA ([20]; 63 g ai/ha)

COc1c(Cl)cc(F)c(-n2c(=O)cc(C(F)(F)F)n(C)c2=O)c1NC(=O)c1ccc2ccccc2c1 [2-75]
20: phytotoxicity rating DIGSA ([9]; 250 g ai/ha) | phytotoxicity rating SORHA ([11]; 63 g ai/ha) | Pre-emerge Herbicidal Activity, phytotoxicity rating (0-100), ECHCG ([16]; 63 g ai/ha) | Pre-emerge Herbicidal Activity, phytotoxicity rating (0-100), SORHA ([20]; 63 g ai/ha) | Pre-emerge Herbicidal Activity, phytotoxicity rating (0-100), IPOHE ([22]; 63 g ai/ha)
70: phytotoxicity rating RICE ([3]; 63 g ai/ha) | Pre-emerge Herbicidal Activity, phytotoxicity rating (0-100), DIGSA ([18]; 63 g ai/ha)
30: Pre-emerge phytotoxicity rating (0-100), crop damage, RICE ([5]; 63 g ai/ha) | phytotoxicity rating SETVI ([8]; 63 g ai/ha)
15: phytotoxicity rating CORN ([2]; 250 g ai/ha)
10: phytotoxicity rating CORN ([2]; 63 g ai/ha) | phytotoxicity rating ECHCG ([7]; 63 g ai/ha)
80: phytotoxicity rating RICE ([3]; 250 g ai/ha) | Pre-emerge phytotoxicity rating (0-100), crop damage, RICE ([5]; 250 g ai/ha) | phytotoxicity rating SETVI ([8]; 250 g ai/ha)
100: Pre-emerge Herbicidal Activity, phytotoxicity rating (0-100), AMARE ([1]; 63 g ai/ha) | Pre-emerge Herbicidal Activity, phytotoxicity rating (0-100), AMARE ([1]; 250 g ai/ha) | phytotoxicity rating CASOB ([6]; 63 g ai/ha) | phytotoxicity rating CASOB ([6]; 250 g ai/ha) | phytotoxicity rating CHEAL ([10]; 63 g ai/ha) | phytotoxicity rating CHEAL ([10]; 250 g ai/ha) | phytotoxicity rating AMARE ([12]; 63 g ai/ha) | phytotoxicity rating AMARE ([12]; 250 g ai/ha) | phytotoxicity rating ABUTH ([13]; 63 g ai/ha) | phytotoxicity rating ABUTH ([13]; 250 g ai/ha) | phytotoxicity rating IPOHE ([14]; 63 g ai/ha) | phytotoxicity rating IPOHE ([14]; 250 g ai/ha) | Pre-emerge Herbicidal Activity, phytotoxicity rating (0-100), CASOB ([15]; 63 g ai/ha) | Pre-emerge Herbicidal Activity, phytotoxicity rating (0-100), CASOB ([15]; 250 g ai/ha) | Pre-emerge Herbicidal Activity, phytotoxicity rating (0-100), ECHCG ([16]; 250 g ai/ha) | Pre-emerge Herbicidal Activity, phytotoxicity rating (0-100), SETVI ([17]; 63 g ai/ha) | Pre-emerge Herbicidal Activity, phytotoxicity rating (0-100), SETVI ([17]; 250 g ai/ha) | Pre-emerge Herbicidal Activity, phytotoxicity rating (0-100), DIGSA ([18]; 250 g ai/ha) | Pre-emerge Herbicidal Activity, phytotoxicity rating (0-100), CHEAL ([19]; 63 g ai/ha) | Pre-emerge Herbicidal Activity, phytotoxicity rating (0-100), CHEAL ([19]; 250 g ai/ha) | Pre-emerge Herbicidal Activity, phytotoxicity rating (0-100), ABUTH ([21]; 63 g ai/ha) | Pre-emerge Herbicidal Activity, phytotoxicity rating (0-100), ABUTH ([21]; 250 g ai/ha)
60: Pre-emerge Herbicidal Activity, phytotoxicity rating (0-100), SORHA ([20]; 250 g ai/ha) | Pre-emerge Herbicidal Activity, phytotoxicity rating (0-100), IPOHE ([22]; 250 g ai/ha)
0: Pre-emerge phytotoxicity rating (0-100), crop damage, CORN ([4]; 63 g ai/ha) | Pre-emerge phytotoxicity rating (0-100), crop damage, CORN ([4]; 250 g ai/ha) | phytotoxicity rating DIGSA ([9]; 63 g ai/ha)
40: phytotoxicity rating SORHA ([11]; 250 g ai/ha)
50: phytotoxicity rating ECHCG ([7]; 250 g ai/ha)
